The source of these data is patent publication EP3311800B1, “COMPOSITION COMPRISING MICROSTRUCTURES FOR THE CONTROLLED RELEASE OF OZONIZED OIL” (Project & Communications, Ltd., priority 2016, dated 2018).

This experiment deals with fibroblast L929. Kind of experiment: cytotoxicity test (MTT test), UNI EN ISO 10993-5:2009. It is filed as cell-based. As to conditions: Mus musculus. The text has this:
The four compositions indicated above were subjected to a cytotoxicity test (MTT test).
As is known, the cytotoxicity test (MTT test) is a reduction test used for determining the level of metabolic activity in the eukaryote cells. This is one of the most widely used cytotoxicity tests, thanks to its simplicity, accuracy and reproducibility. The chemical base of the test is the reduction of MTT, a tetrazole compound [3-(4,5-dimethylthiazol-2-yl)-2,5-diphenyltetrazolium bromide]. MTT is a yellow substance which, after reduction, forms a purple-colored formazan salt.
The process mainly takes place in the cytoplasm and secondarily in the mitochondria and at the level of the plasmatic membrane. The activity of the reductase that catalyze the reaction is highly dependent on the concentration of the intracellular NADH and NADPH, whose levels are associated with the availability of extracellular glucose. The mitochondrial succinate dehydrogenase and the cytochrome C also take part in the reduction of MTT. Consequently, any substance or treatment that interferes with these enzymes or with the glycolysis would influence the reduction of MTT and would therefore alter the results of the cell count. As a result of these metabolic reduction processes, dark purple crystals of formazan are formed within a few hours. These crystals can be solubilized in various organic solvents, mainly alcohols. An increase or a reduction in the number of cells causes an analogous variation in the quantity of formazan formed, thus giving an indication of the degree of cytotoxicity of the product tested.
The MTT test was carried out on cultures of fibroblast L929 treated with the extract (transfer liquid as such obtained after overnight incubation of the composition under examination in the culture medium) and subsequent dilutions 1:2. The same procedure was also applied for the negative reference (internal standard), whereas the positive control (SDS) was tested at concentrations ranging from 0.00313 to 0.4 mg/ml. Sodium dodecyl sulfate (SDS), a substance with known cytotoxic effects was used as positive control, whereas a non-cytotoxic internal standard was used as negative reference. The analysis was carried out according to the ISO standard for the biological evaluation of medical devices UNI EN ISO 10993-5:2009 (E) .
More specifically, an adequate number of cells was seeded in 96-well plates. Once a semi-confluent monolayer had been reached, the cells were treated with the various concentrations of the sample tested and standards and incubated for 24 hours under standard conditions. Non-treated cells kept in the culture medium represent the negative controls. After 24 hours of contact, the plates were examined under a phase contrast microscope, the medium was carefully removed from each well, the cells were then treated with MTT (1 mg/ml) and incubated for 3 hours under standard conditions. At the end of this period, the solution of MTT was eliminated and 100 µl of isopropanol were added to each well to dissolve the formazan crystals formed. The absorbance (optical density, OD) was determined by reading the spectrophotometer at a wavelength of 540 nm.
The inhibition of the cell vitality at each tested concentration was expressed as a percentage with respect to the negative control (non-treated cells) according to the following formula: Inhibition % = 100−[ODX /ODNC )×100] […]
The values thus calculated were charted against the same concentrations. […]
In general terms: Tetrazolium assays rely on reduction of a dye to a coloured formazan, in cell work by metabolically active cells.

What is called inhibition is the drop in the measured response relative to a control, in per cent. The term IC50 denotes the point on the concentration scale where inhibition reaches its midpoint. As to `CCCCCCCCCCCCOS(=O)(=O)[O-].[Na+]` [SDS, Sodium dodecyl sulfate], the inhibition at 50 µg/mL (Concentration 0.05 mg/ml, 24 hours, read-out: Cell vitality inhibition (%)) is 66.5%. Further, the inhibition at 100 µg/mL (Concentration 0.1 mg/ml, 24 hours, read-out: Cell vitality inhibition (%)) came out at 97.2%. In addition, the inhibition at 200 µg/mL (Concentration 0.2 mg/ml, 24 hours, read-out: Cell vitality inhibition (%)) came to 97.5%. Moreover, the inhibition at 400 µg/mL (Concentration 0.4 mg/ml, 24 hours, read-out: Cell vitality inhibition (%)) amounted to 96.8%. In addition, under “concentration inhibiting cell vitality by 50%, extrapolated from concentration/response curve”, the half-maximal inhibitory concentration (IC50) was 46 µg/mL.
